# Assays:
# [1] = tested on: human liver microsomes (HLM); format: in vitro ADME; conditions: pooled HLM; Km not shown
# [2] = biological target: T1, UGT2B7 (Homo sapiens, UniProt P16662); test: Screening for aprepitant glucuronidation, UGT2B7 Supersomes; format: in vitro ADME; conditions: UGT2B7, 5 and 250 µM aprepitant
# T1 sequence (P16662 24-529): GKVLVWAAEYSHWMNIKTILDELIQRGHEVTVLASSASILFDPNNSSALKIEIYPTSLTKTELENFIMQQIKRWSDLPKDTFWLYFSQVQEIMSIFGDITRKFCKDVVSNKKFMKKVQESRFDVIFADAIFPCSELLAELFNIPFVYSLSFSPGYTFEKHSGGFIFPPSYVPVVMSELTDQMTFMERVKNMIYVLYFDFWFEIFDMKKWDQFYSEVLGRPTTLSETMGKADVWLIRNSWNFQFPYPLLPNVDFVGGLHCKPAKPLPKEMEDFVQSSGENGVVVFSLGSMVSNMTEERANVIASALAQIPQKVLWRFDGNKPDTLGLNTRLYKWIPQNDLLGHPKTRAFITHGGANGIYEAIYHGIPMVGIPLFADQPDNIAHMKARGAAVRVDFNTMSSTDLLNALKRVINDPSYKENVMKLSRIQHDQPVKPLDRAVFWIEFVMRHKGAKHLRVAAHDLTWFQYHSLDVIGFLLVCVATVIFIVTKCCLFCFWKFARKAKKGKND
# [3] = biological target: T2, UGT2B17 (Homo sapiens, UniProt O75795); test: Screening for aprepitant glucuronidation, UGT2B17 Supersomes; format: in vitro ADME; conditions: UGT2B17, 5 and 250 µM aprepitant
# T2 sequence (O75795 24-530): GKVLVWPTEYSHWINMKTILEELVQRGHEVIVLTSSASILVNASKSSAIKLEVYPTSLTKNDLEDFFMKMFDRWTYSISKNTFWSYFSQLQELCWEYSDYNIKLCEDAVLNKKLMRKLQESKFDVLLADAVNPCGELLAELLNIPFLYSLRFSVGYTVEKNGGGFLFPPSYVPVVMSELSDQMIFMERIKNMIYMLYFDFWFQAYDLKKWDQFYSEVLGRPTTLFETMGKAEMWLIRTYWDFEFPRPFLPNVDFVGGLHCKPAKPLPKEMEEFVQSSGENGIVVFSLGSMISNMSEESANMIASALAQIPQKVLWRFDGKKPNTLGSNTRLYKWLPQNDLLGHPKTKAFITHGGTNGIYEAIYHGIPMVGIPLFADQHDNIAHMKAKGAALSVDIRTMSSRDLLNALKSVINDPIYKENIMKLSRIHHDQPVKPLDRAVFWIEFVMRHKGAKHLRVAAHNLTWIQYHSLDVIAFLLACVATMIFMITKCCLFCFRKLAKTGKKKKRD
# [4] = tested on: human liver microsomes (HLM); format: in vitro ADME; conditions: microsomes from 44 livers, 30 µM aprepitant
# [5] = biological target: T3, UGT1A6 (Homo sapiens, UniProt P19224); test: Inhibition by aprepitant of UGT1A6; format: in vitro ADME; conditions: UGT1A6 enzyme, pH 7.5, probe 4-MU
# T3 sequence (P19224 27-532): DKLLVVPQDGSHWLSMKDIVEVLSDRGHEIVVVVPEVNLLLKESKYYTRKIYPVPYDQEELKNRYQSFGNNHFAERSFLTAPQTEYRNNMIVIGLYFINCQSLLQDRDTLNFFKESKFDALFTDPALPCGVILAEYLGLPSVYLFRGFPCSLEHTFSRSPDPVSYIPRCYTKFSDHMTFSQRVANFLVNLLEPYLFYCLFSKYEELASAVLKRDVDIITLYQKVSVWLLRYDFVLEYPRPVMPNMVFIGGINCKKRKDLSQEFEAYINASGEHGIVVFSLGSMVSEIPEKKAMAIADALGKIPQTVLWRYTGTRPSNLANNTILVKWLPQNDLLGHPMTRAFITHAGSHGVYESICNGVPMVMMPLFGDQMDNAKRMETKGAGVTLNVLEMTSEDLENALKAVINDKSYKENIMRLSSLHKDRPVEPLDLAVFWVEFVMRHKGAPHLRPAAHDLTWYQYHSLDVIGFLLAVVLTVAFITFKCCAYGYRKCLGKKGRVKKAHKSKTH
# [6] = biological target: T4, UGT1A7 (Homo sapiens, UniProt Q9HAW7); test: Inhibition by aprepitant of UGT1A7; format: in vitro ADME; conditions: UGT1A7 enzyme, pH 7.5, probe 4-MU
# T4 sequence (Q9HAW7 26-530): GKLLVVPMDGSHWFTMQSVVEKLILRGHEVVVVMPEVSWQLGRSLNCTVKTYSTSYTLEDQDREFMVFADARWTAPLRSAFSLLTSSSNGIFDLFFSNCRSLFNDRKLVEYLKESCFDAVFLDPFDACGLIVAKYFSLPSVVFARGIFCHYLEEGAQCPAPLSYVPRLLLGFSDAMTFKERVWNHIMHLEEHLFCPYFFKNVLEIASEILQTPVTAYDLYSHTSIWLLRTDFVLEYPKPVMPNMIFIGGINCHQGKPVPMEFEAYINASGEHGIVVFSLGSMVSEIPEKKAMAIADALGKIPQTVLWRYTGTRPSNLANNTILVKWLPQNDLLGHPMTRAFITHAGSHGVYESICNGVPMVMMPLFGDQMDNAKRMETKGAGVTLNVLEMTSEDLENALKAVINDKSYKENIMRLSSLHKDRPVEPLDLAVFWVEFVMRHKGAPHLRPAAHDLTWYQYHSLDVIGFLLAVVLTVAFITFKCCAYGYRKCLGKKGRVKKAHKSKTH
# [7] = biological target: T2, UGT2B17; test: Inhibition by aprepitant of UGT2B17; format: in vitro ADME; conditions: UGT2B17 enzyme, pH 7.5, probe 4-MU
# [8] = Calculated concentration of drug in the lumen of the gut; parameters: species or system human; conditions: molar dose/250 mL
# [9] = ref Merck 2003; cited from earlier work
structure (smiles),measurement,setting,value
"C[C@@H](O[C@H]1OCCN(Cc2n[nH]c(=O)[nH]2)[C@H]1c1ccc(F)cc1)c1cc(C(F)(F)F)cc(C(F)(F)F)c1 [aprepitant, Aprepitant]",shape of velocity curve (kinetics),[1],biphasic shape
same,AP-G formation,[2],not detected
same,AP-G formation,[3],not detected
same,variation of glucuronidation activity between livers,[4],approximately 2 fold
same,inhibition at 10 µM,[5],19%
same,inhibition at 10 µM,[6],17%
same,inhibition at 10 µM,[7],10%
same,luminal concentration (Igut),[8]; 40 mg oral capsule,300 µM
same,luminal concentration (Igut),[8]; 125 mg oral capsule,936 µM
same,mean absolute oral bioavailability,[9],60–65%
